B1: FRB-Casp9: catalytic domain of Casp9 fused with FRB; tested co-expressed with FKBP12-Casp9 (protein)
chain: MASRILWHEMWHEGLEEASRLYFGERNVKGMFEVLEPLHAMMERGPQTLKETSFNQAYGRDLMEAQEWCRKYMKSGNVKDLLQAWDLYYHVFRRISKLEYSGGGSGVDGFGDVGALESLRGNADLAYILSMEPCGHCLIINNVNFCRESGLRTRTGSNIDCEKLRRRFSSLHFMVEVKGDLTAKKMVLALLELAQQDHGALDCCVVVILSHGCQASHLQFPGAVYGTDGCPVSVEKIVNIFNGTSCPSLGGKPKLFFIQACGGEQKDHGFEVASTSPEDESPGSNPEPDATPFQEGLRTFDQLDAISSLPTPSDIFVSYSTFPGFVSWRDPKSGSWYVETLDDIFEQWAHSEDLQSLLLRVANAVSVKGIYKQMPGCFNFLRKKLFFKTSAS
modifications: Chimeric protein FRB-dCasp9

System: T-cells
Assay: Deletion of chimeric protein-expressing T-cells with Rapamycin (Annexin-V/7AAD flow cytometry)
Type: cell-based
Details: 48 hours; for deletion of transduced T-cells: different concentrations of Rapamycin, live cells expressing fluorescent proteins; for deletion of T-cells expressing both eGFP and eBFP2: lowest concentration of Rapamycin, co-transduced pair
Procedure: T-cells were either transduced with eGFP alone (FIG. 2a), or co-transduced with FKBP12-dCasp9 (co-expressing eGFP) and FRB-dCasp9 (co-expressing eBFP2) (FIG. 2b). T-cells were intentionally only partially transduced so that the non-transduced T-cells would act as internal controls. […] After 48 hours, cells were stained with Annexin-V and 7AAD and analysed by flow cytometry looking at the proportion of live cells which were expressing fluorescent proteins.
FIG. 3—Function of RapCasp9 variants. T-cells were transduced with (a) eGFP alone; (b) double transduced with FKBP12-Casp9 and FRB-Casp9 co-expressed with eGFP and eBFP2 respectively; (c) transduced with FRB-FKBP12-Casp9 and (d) transduced with FRB-Casp9-FKBP12 and (e) FBP12-Casp9-2A-FRB-FRBw. Only a proportion of cells were transduced, the negative cells acted as an internal negative control. […] T-cells were then stained with Annexin-V and 7AAD and analysed by flow-cytometry. eGFP vs eBFP2 is shown on live cells as determined by Annexin-V and 7AAD staining.
T-cells were transduced with the different constructs. For the two-molecule rapCasp9 (FIG. 1a), T-cells were transduced with two vectors: one coding for FKBP12-Casp9 co-expressed with the green fluorescent protein eGFP by means of an internal ribosome entry sequence, and the other coding for FRB-Casp9 co-expressed with the blue fluorescent protein eBFP2. For the one molecule rapCasp9 (FIG. 1b), T-cells were transduced with just one vector coding for the respective rapCasp9 which are co-expressed eGFP. A construct which provided FKB12-Casp9 and FRB-FRBw was encoded in a tri-cistronic cassette whereby the FKBP12-Casp9 and FRB-FRBw were co-expressed using a FMD-2A like peptide and eGFP was co-expressed with an IRES. The T-cells were intentionally only partially transduced so within the cell culture a proportion of cells remained non-transduced to act as an internal negative control.
Following this, T-cells were stained with Annexin-V and 7AAD and analysed by flow-cytometry. By gating on the live cells, and interrogating the population of cells expressing fluorescent proteins, survival of the transduced and non-transduced populations could be clearly measured.

| Molecule | deletion of transduced T-cells | deletion of T-cells expressing both eGFP and eBFP2 |
| --- | --- | --- |
| FKBP12-Casp9/FRB-FRBw: Caspase 9 catalytic domain fused to FKBP12, co-expressed with a fusion of two copies of FRB | effective deletion of single positive cells | – |
| FKBP12-Casp9: catalytic domain of Casp9 fused with FKBP12; tested co-expressed with FRB-Casp9 | effective deletion of only double positive cells | very effectively deleted |
| FKBP12-FRB-Casp9: single construct where FKBP12 and FRB are fused together and then fused to the catalytic domain of Casp9 by a flexible linker | effective deletion of single positive cells | – |
| B1 | effective deletion of only double positive cells | very effectively deleted |

— patent US11103532B2, “Chimeric protein” (AUTOLUS LIMITED, priority 2015, dated 2021)
